The values below come from a flash point compilation (Sun et al. 2020).

Molecules are shown by their SMILES.

`CCCCCCCO` [heptan-1-ol] came in with a flash point of 77.00 °C.
Still for that read-out and setting: in the case of `CCCCCCCCCO` [nonan-1-ol] it was 74.00 °C; in that of `CCCCCCCC` [octane], 13.00 °C; in that of `C=CCN` [prop-2-en-1-amine], -29.00 °C.

The source holds these as a separate data set.
In turn, `CC(C)(C)C(C)(C)C` [2,2,3,3-Tetramethylbutane] registered a flash point of -0 °C.
Same read-out and setting: in the case of `CC(C)C(C)C(C)(C)C` (stereo not drawn) [2,2,3,4-Tetramethylpentane] it was 11 °C; in that of `CC(C)C(C)(C)C` [2,2,3-Trimethylbutane], -26 °C.
`CCCC(C)C(C)(C)C` (stereo not drawn) [2,2,3-Trimethylhexane]: the flash point came out at 15 °C.
On the same count and under the same terms, in the case of `CC(C)(C)CC(C)(C)C` [2,2,4,4-Tetramethylpentane] it was 3 °C.
Still for that read-out and setting: as for `CC(C)(C)CCC(C)(C)C` [2,2,5,5-Tetramethylhexane], the figure is 31 °C.
`CC(C)CCC(C)(C)C` [2,2,5-Trimethylhexane]: the flash point amounted to 13 °C.
The same measure, in the same setting: in the case of `CCC(C)C(C)(C)C(C)C` (stereo not drawn) [2,3,3,4-Tetramethylhexane] it was 31 °C; in that of `CCC(C)(C)C(C)C` [2,3,3-Trimethylpentane], -0 °C; in that of `CCC(C)C(C)C(C)C` (stereo not drawn) [2,3,4-Trimethylhexane], 15 °C.
Same read-out and setting: as for `CCC(C)CC(C)C(C)C` (stereo not drawn) [2,3,5-Trimethylheptane], the figure is 31 °C; as for `CC(C)CC(C)C(C)C` (stereo not drawn) [2,3,5-Trimethylhexane], 15 °C.

The source holds these as a separate data set.
For the molecule `C=CCNCCC[Si](OC)(OC)OC` [3-(N-ALLYLAMINO)PROPYLTRIMETHOXYSILANE], the flash point is 88.00 °C.
The same measure, in the same setting: as for `CCO[Si](CCCN)(OCC)OCC` [3-AMINOPROPYLTRIETHOXYSILANE], the figure is 104.00 °C; as for `CO[Si](CCCN)(OC)OC` [3-AMINOPROPYLTRIMETHOXYSILANE], 83.00 °C; as for `C[Si](C)(C)CCCN` [3-AMINOPROPYLTRIMETHYLSILANE], 59.00 °C.
Same read-out and setting: as for `COCCOCCO[Si](CCCN)(OCCOCCOC)OCCOCCOC` [3-AMINOPROPYLTRIS(METHOXYETHOXYETHOXY)SILANE], the figure is 68.00 °C.
Still for that read-out and setting: as for `C=CC(=O)OCCC[Si](C)(C)OC` [(3-ACRYLOXYPROPYL)DIMETHYLMETHOXYSILANE], the figure is 85.00 °C; as for `C=CC(=O)OCCC[Si](OC)(OC)OC` [(3-ACRYLOXYPROPYL)TRIMETHOXYSILANE], 123.00 °C; as for `C=CC(=O)OCCC[Si](O[Si](C)(C)C)(O[Si](C)(C)C)O[Si](C)(C)C` [(3-ACRYLOXYPROPYL)TRIS(TRIMETHYLSILOXY)SILANE], 93.00 °C.
In turn, `C[Si](C)(C)CN=[N+]=[N-]` [(AZIDOMETHYL)TRIMETHYLSILANE] returned a flash point of 6.00 °C.
The same measure, in the same setting: as for `CC(=O)OCC[Si](C)(C)Cl` [ACETOXYETHYLDIMETHYLCHLOROSILANE], the figure is 63.00 °C; as for `CC(=O)OCC[Si](C)(Cl)Cl` [ACETOXYETHYLMETHYLDICHLOROSILANE], 65.00 °C.
`CCO[Si](CCOC(C)=O)(OCC)OCC` [ACETOXYETHYLTRIETHOXYSILANE] registered a flash point of 99.00 °C.
`CC(=O)O[Si](C)(C)C` [ACETOXYTRIMETHYLSILANE] came in with a flash point of 4.00 °C.
Same read-out and setting: as for `CC(=O)[Si](C)(C)C` [ACETYLTRIMETHYLSILANE], the figure is 8.00 °C; as for `C=CC(=O)OC[Si](OC)(OC)OC` [ACRYLOXYMETHYLTRIMETHOXYSILANE], 62.00 °C; as for `C=CC[Si](Cl)(Cl)CCCCl` [ALLYL(3-CHLOROPROPYL)DICHLOROSILANE], 76.00 °C.
Turning to `C=CC[Si](C)(C)c1ccc(OC)cc1` [ALLYL(4-METHOXYPHENYL)DIMETHYLSILANE], the flash point was found to be 102.00 °C.
On the same count and under the same terms, in the case of `C=CC[Si](C)(C)CCl` [ALLYL(CHLOROMETHYL)DIMETHYLSILANE] it was 27.00 °C; in that of `C=CCN[Si](C)(C)C` [ALLYLAMINOTRIMETHYLSILANE], 10.00 °C; in that of `C=CC[SiH](Cl)Cl` [ALLYLDICHLOROSILANE], -4.00 °C.
Still for that read-out and setting: in the case of `C=CCO[Si](C)(C)C(C)(C)C` [ALLYLOXY-t-BUTYLDIMETHYLSILANE] it was 32.00 °C; in that of `C=CC[Si](Cl)(Cl)c1ccccc1` [ALLYLPHENYLDICHLOROSILANE], 76.00 °C.
Still for that read-out and setting: as for `C=CC[Si](Cl)(Cl)Cl` [ALLYLTRICHLOROSILANE], the figure is 31.00 °C; as for `C=CC[Si](OCC)(OCC)OCC` [ALLYLTRIETHOXYSILANE], 47.00 °C.
Molecule `C=CC[Si](C(C)C)(C(C)C)C(C)C` [ALLYLTRIISOPROPYLSILANE] returned a flash point of 76.00 °C.
`C=CC[Si](C)(C)C` [ALLYLTRIMETHYLSILANE]: the flash point amounted to 7.00 °C.
On the same count and under the same terms, as for `C[Si](C)(Cl)Cc1ccccc1` [BENZYLDIMETHYLCHLOROSILANE], the figure is 73.00 °C.
For `CCO[Si](CCCNCCN)(OCC)OCC` [N-(2-AMINOETHYL)-3-AMINOPROPYLTRIETHOXYSILANE], the flash point came out at 148.00 °C.
In the case of `CO[Si](CCCNCCN)(OC)OC` [N-(2-AMINOETHYL)-3-AMINOPROPYLTRIMETHOXYSILANE], the flash point came to 150.00 °C.
On the same count and under the same terms, in the case of `COCN(Cc1ccccc1)C[Si](C)(C)C` [N-BENZYL-N-METHOXYMETHYL-N-(TRIMETHYLSILYLMETHYL)AMINE] it was 66.00 °C.
Same read-out and setting: in the case of `CO[Si](OC)(OC)c1cccc(N)c1` [m-AMINOPHENYLTRIMETHOXYSILANE] it was 180.00 °C.

The source holds these as a separate data set.
Consider `CCCc1cccc(C)c1C` [1,2-dimethyl-3-propylbenzene], for which the flash point is 72 °C.
The molecule `Cc1ccc(C(C)C)cc1C` [1,2-dimethyl-4-isopropylbenzene] came in with a flash point of 68.1 °C.
`CCc1cc(CC)cc(CC)c1` [1,3,5-triethylbenzene]: the flash point was found to be 81.1 °C.
For the molecule `CCc1ccc(C)c(CC)c1` [1,3-diethyl-4-methylbenzene], the flash point was found to be 72.2 °C.
The same measure, in the same setting: in the case of `CCc1cc(C)cc(CC)c1` [1,3-diethyl-5-methylbenzene] it was 70 °C; in that of `CC(C)c1cccc(C(C)C)c1` [1,3-diisopropylbenzene], 76.8 °C.
The same measure, in the same setting: in the case of `Cc1ccc(C(C)C)c(C)c1` [1,3-dimethyl-4-isopropylbenzene] it was 67.2 °C.
Still for that read-out and setting: in the case of `CCc1ccc(CC)c(C)c1` [1,4-diethyl-2-methylbenzene] it was 73.0 °C; in that of `CC(C)c1ccc(C(C)C)cc1` [1,4-diisopropylbenzene], 76.1 °C.
With `CCCCc1ccccc1C` [1-butyl-2-methylbenzene], the flash point was found to be 72.5 °C.
On the same count and under the same terms, in the case of `CCCc1cccc(CC)c1` [1-ethyl-3-propylbenzene] it was 69.7 °C.
Still for that read-out and setting: as for `Cc1ccc(CC(C)C)cc1` [1-isobutyl-4-methylbenzene], the figure is 67.4 °C.
The same measure, in the same setting: in the case of `CCC(C)c1ccc(C)cc1C` (stereo not drawn) [1-sec -butyl-2,4-dimethylbenzene] it was 81.4 °C; in that of `CCC(C)c1cccc(C)c1` (stereo not drawn) [1-sec -butyl-3-methylbenzene], 63.1 °C; in that of `CCC(C)c1ccc(C)cc1` (stereo not drawn) [1-sec -butyl-4-methylbenzene], 65 °C.
Molecule `Cc1cccc(C(C)(C)C)c1` [1-tert -butyl-3-methylbenzene] yielded a flash point of 60.6 °C.
`CCc1ccc(C(C)(C)C)cc1` [1-tert -butyl-4-ethylbenzene] displayed a flash point of 76.0 °C.
With `CCc1cc(C)ccc1C` [2-ethyl-p -xylene], the flash point was 56.1 °C.
On the same count and under the same terms, as for `CCc1ccc(C)c(C)c1` [4-ethyl-o -xylene], the figure is 58.1 °C; as for `Cc1ccc(C(C)(C)C)cc1` [4-tert -butyltoluene], 54.1 °C; as for `CC(C)C(C)c1ccccc1` (stereo not drawn) [(1,2-dimethylpropyl)benzene], 57.0 °C.
The same measure, in the same setting: in the case of `CCCC(CC)c1ccccc1` (stereo not drawn) [(1-ethylbutyl)benzene] it was 74.2 °C; in that of `CCCCCCC(C)c1ccccc1` (stereo not drawn) [(1-methylheptyl)benzene], 100.1 °C.
The same measure, in the same setting: in the case of `CCCCCC(C)c1ccccc1` (stereo not drawn) [(1-methylhexyl)benzene] it was 87.2 °C; in that of `CC(C)c1ccccc1` [cumene], 31.1 °C.
Consider `CC(C)CCc1ccccc1` [isopentylbenzene], for which the flash point stood at 62.1 °C.
As to `Cc1cccc(C(C)C)c1` [m -cymene], the flash point was 47.1 °C.
On the same count and under the same terms, as for `Cc1ccccc1C(C)C` [o -cymene], the figure is 50.1 °C.
Same read-out and setting: as for `CCc1ccccc1CC` [o -diethylbenzene], the figure is 55.1 °C; as for `CCc1ccccc1C` [o -ethyltoluene], 39.1 °C.
Same read-out and setting: as for `CCCc1ccccc1C` [o -propyltoluene], the figure is 57.8 °C; as for `CCc1ccc(CC)cc1` [p -diethylbenzene], 55.1 °C; as for `CCc1ccc(C)cc1` [p -ethyltoluene], 36.1 °C.
The molecule `Cc1ccc(C)cc1` [p -xylene] came in with a flash point of 25.1 °C.
Same read-out and setting: in the case of `CCCc1ccccc1` [propylbenzene] it was 42.1 °C; in that of `CCC(C)c1ccccc1` (stereo not drawn) [sec -butylbenzene], 52 °C.
Molecule `CCCC(C)c1ccccc1` (stereo not drawn) [sec -pentylbenzene] returned a flash point of 60.7 °C.
Same read-out and setting: in the case of `Cc1ccccc1` [toluene] it was 7.1 °C.

The source holds these as a separate data set.
Turning to `CCCCCCCO` [heptan-1-ol], the flash point was determined as 73.00 °C.
The same measure, in the same setting: in the case of `CCCCCCCCCO` [nonan-1-ol] it was 80.00 °C; in that of `CCCCCCCC` [octane], 16.00 °C.
Consider `C=CCN` [prop-2-en-1-amine], for which the flash point was -28.00 °C.
Same read-out and setting: in the case of `C1CCOC1` [tetrahydrofuran] it was -25.56 °C.

This is another data set of the same source.
Molecule `CC(C)c1cccc(C(C)C)c1` [1,3-diisopropylbenzene] registered a flash point of 76 °C.
Still for that read-out and setting: in the case of `CCCc1ccccc1` [propylbenzene] it was 47 °C; in that of `C1CCOC1` [tetrahydrofuran], -21 °C.
